Data on 30 compounds can be found in US9115101B2 (Genentech, Inc., priority 2012, dated 2015).

Usually IC50 stands for the point on the concentration scale where inhibition reaches its midpoint.

SMILES strings stand for the structures.

In the assay the target is T1, RORc ligand binding domain (Homo sapiens, UniProt P51449).
T1 construct: host or cells: E. coli
T1 sequence (P51449 269-508 limits assumed): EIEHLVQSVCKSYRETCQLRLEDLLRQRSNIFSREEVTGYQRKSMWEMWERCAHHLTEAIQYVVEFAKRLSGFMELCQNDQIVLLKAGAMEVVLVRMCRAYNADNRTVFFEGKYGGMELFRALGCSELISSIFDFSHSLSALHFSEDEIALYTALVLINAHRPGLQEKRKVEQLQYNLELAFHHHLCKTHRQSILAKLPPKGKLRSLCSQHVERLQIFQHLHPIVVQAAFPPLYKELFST
The assay can be described thus: In Vitro RORc Ligand Binding Assay (25-[3H]hydroxycholesterol radioligand filtration). The note with it: In Vitro RORc Ligand Binding Assay; Table 4; read-out: RORc IC50.

As for `CC(=O)N1CCN(c2ccc(CN3C4CC(C4)CC(c4ccccc4)S3(=O)=O)c(F)c2)CC1` (single isomer, unassigned) [Example 300, 1-{4-[4-(3,3-Dioxo-4-phenyl-3-thia-2-aza-bicyclo[4.1.1]oct-2-ylmethyl)-3-fluoro-phenyl]-piperazin-1-yl}-ethanone], the IC50 was found to be 44 nM.

With `CC(=O)N1CCN(c2ccc(CN3C4CC(C4)CC(c4ccccc4)S3(=O)=O)c(F)c2)CC1` (single isomer, unassigned) [Example 301, 1-{4-[4-(3,3-Dioxo-4-pheny-3-thia-2-aza-bicyclo[4.1.1]oct-2-ylmethyl)-3-fluoro-phenyl]-piperazin-1-yl}-ethanone], the IC50 amounted to 308 nM.

Consider `N#CCC(=O)N1CCN(c2ccc(CN3CCCCC(c4ccccc4)S3(=O)=O)c(F)c2)CC1` (single isomer, unassigned) [Example 302, 3-{4-[4-(1,1-Dioxo-7-phenyl-[1,2]thiazepan-2-ylmethyl)-3-fluoro-phenyl]-piperazin-1-yl}-3-oxo-propionitrile], for which the IC50 was 24 nM.

Consider `N#CCC(=O)N1CCN(c2ccc(CN3CCCCC(c4ccccc4)S3(=O)=O)c(F)c2)CC1` (single isomer, unassigned) [Example 303, 3-{4-[4-(1,1-Dioxo-7-phenyl-[1,2]thiazepan-2-ylmethyl)-3-fluoro-phenyl]-piperazin-1-yl}-3-oxo-propionitrile], for which the IC50 is 86 nM.

Consider `C[C@H](O)C(=O)N1CCN(c2ccc(CN3CCCCC(c4ccccc4)S3(=O)=O)c(F)c2)CC1` (single isomer, unassigned) [Example 304, 1-{4-[4-(1,1-Dioxo-7-phenyl-[1,2]thiazepan-2-ylmethyl)-3-fluoro-phenyl]-piperazin-1-yl}-2-hydroxy-propan-1-one], for which the IC50 stood at 38 nM.

For the compound `C[C@H](O)C(=O)N1CCN(c2ccc(CN3CCCCC(c4ccccc4)S3(=O)=O)c(F)c2)CC1` (single isomer, unassigned) [Example 305, 1-{4-[4-(1,1-Dioxo-7-phenyl-[1,2]thiazepan-2-ylmethyl)-3-fluoro-phenyl]-piperazin-1-yl}-2-hydroxy-propan-1-one], the IC50 worked out at 165 nM.

For `CC(=O)N1CCN(c2ccc(CN3CCCCC(c4ccccc4)S3(=O)=O)cc2)CC1` (single isomer, unassigned) [Example 306, 1-{4-[4-(1,1-Dioxo-7-phenyl-[1,2]thiazepan-2-ylmethyl)-phenyl]-piperazin-1-yl}-ethanone], the IC50 worked out at 87 nM.

`CC(=O)N1CCN(c2ccc(CN3CCCCC(c4ccccc4)S3(=O)=O)cc2)CC1` (single isomer, unassigned) [Example 307, 1-{4-[4-(1,1-Dioxo-7-phenyl-[1,2]thiazepan-2-ylmethyl)-phenyl]-piperazin-1-yl}-ethanone]: the half-inhibitory concentration (IC50) was 227 nM.

`O=C(CO)N1CCN(c2ccc(CN3CCCCC(c4ccccc4)S3(=O)=O)c(F)c2)CC1` (single isomer, unassigned) [Example 308, 1-{4-[4-(1,1-Dioxo-7-phenyl-[1,2]thiazepan-2-ylmethyl)-3-fluoro-phenyl]-piperazin-1-yl}-2-hydroxy-ethanone]: the IC50 worked out at 29 nM.

For `C[C@H](O)C(=O)N1CCN(c2ccc(CN3CCCCC(c4ccccc4)S3(=O)=O)cc2)CC1` (single isomer, unassigned) [Example 309, 1-{4-[4-(1,1-Dioxo-7-phenyl-[1,2]thiazepan-2-ylmethyl)-phenyl]-piperazin-1-yl}-2-hydroxy-propan-1-one], the IC50 was found to be 106 nM.

Regarding `N#CCC(=O)N1CCN(c2ccc(CN3CCCCC(c4ccccc4)S3(=O)=O)cc2)CC1` (single isomer, unassigned) [Example 310, 3-{4-[4-(1,1-Dioxo-7-phenyl-[1,2]thiazepan-2-ylmethyl)-phenyl]-piperazin-1-yl}-3-oxo-propionitrile], the IC50 was determined as 45 nM.

Consider `C[C@H](O)C(=O)N1CCN(c2ccc(CN3CCCCC(c4ccccc4)S3(=O)=O)cc2)CC1` (single isomer, unassigned) [Example 311, 1-{4-[4-(1,1-Dioxo-7-phenyl-[1,2]thiazepan-2-ylmethyl)-phenyl]-piperazin-1-yl}-2-hydroxy-propan-1-one], for which the half-maximal inhibitory concentration (IC50) is 898 nM.

Take `N#CCC(=O)N1CCN(c2ccc(CN3CCCCC(c4ccccc4)S3(=O)=O)cc2)CC1` (single isomer, unassigned) [Example 312, 3-{4-[4-(1,1-Dioxo-7-phenyl-[1,2]thiazepan-2-ylmethyl)-phenyl]-piperazin-1-yl}-3-oxo-propionitrile]: the 50% inhibitory concentration (IC50) is 926 nM.

On to `O=C(CO)N1CCN(c2ccc(CN3CCCCC(c4ccccc4)S3(=O)=O)c(F)c2)CC1` (single isomer, unassigned) [Example 313, 1-{4-[4-(1,1-Dioxo-7-phenyl-[1,2]thiazepan-2-ylmethyl)-3-fluoro-phenyl]-piperazin-1-yl}-2-hydroxy-ethanone], for which the IC50 is 592 nM.

Regarding `C[C@@H](O)C(=O)N1CCN(c2ccc(CN3CCCCC(c4ccccc4)S3(=O)=O)c(F)c2)CC1` (single isomer, unassigned) [Example 314, 1-{4-[4-(1,1-Dioxo-7-phenyl-[1,2]thiazepan-2-ylmethyl)-3-fluoro-phenyl]-piperazin-1-yl}-2-hydroxy-propan-1-one], the IC50 came out at 237 nM.

In the case of `C[C@@H](O)C(=O)N1CCN(c2ccc(CN3CCCCC(c4ccccc4)S3(=O)=O)cc2)CC1` (single isomer, unassigned) [Example 315, 1-{4-[4-(1,1-Dioxo-7-phenyl-[1,2]thiazepan-2-ylmethyl)-phenyl]-piperazin-1-yl}-2-hydroxy-propan-1-one], the half-inhibitory concentration (IC50) was found to be 321 nM.

Consider `O=C(CO)N1CCN(c2ccc(CN3CCCCC(c4ccccc4)S3(=O)=O)cc2)CC1` (single isomer, unassigned) [Example 316, 1-{4-[4-(1,1-Dioxo-7-phenyl-[1,2]thiazepan-2-ylmethyl)-phenyl]-piperazin-1-yl}-2-hydroxy-ethanone], for which the IC50 is 173 nM.

On to `C[C@@H](O)C(=O)N1CCN(c2ccc(CN3CCCCC(c4ccccc4)S3(=O)=O)cc2)CC1` (single isomer, unassigned) [Example 317, 1-{4-[4-(1,1-Dioxo-7-phenyl-[1,2]thiazepan-2-ylmethyl)-phenyl]-piperazin-1-yl}-2-hydroxy-propan-1-one], for which the IC50 was determined as 3400 nM.

For the compound `O=C(CO)N1CCN(c2ccc(CN3CCCCC(c4ccccc4)S3(=O)=O)cc2)CC1` (single isomer, unassigned) [Example 318, 1-{4-[4-(1,1-Dioxo-7-phenyl-[1,2]thiazepan-2-ylmethyl)-phenyl]-piperazin-1-yl}-2-hydroxy-ethanone], the half-maximal inhibitory concentration (IC50) was determined as 1970 nM.

`CC(=O)N1CCN(c2ccc(CN3[C@H](C)CCCC(c4ccccc4)S3(=O)=O)c(F)c2)CC1` (single isomer, unassigned) [Example 319]: the 50% inhibitory concentration (IC50) came out at 8 nM.

Consider `CC(=O)N1CCN(c2ccc(CN3[C@@H](C)CCCC(c4ccccc4)S3(=O)=O)c(F)c2)CC1` (single isomer, unassigned) [Example 320], for which the half-inhibitory concentration (IC50) was 1920 nM.

On to `CC(=O)N1CCN(c2ccc(CN3[C@H](C)CCCC(c4ccccc4)S3(=O)=O)c(F)c2)CC1` (single isomer, unassigned) [Example 321], for which the IC50 stood at 16 nM.

Take `CC(=O)N1CCN(c2ccc(CN3[C@@H](C)CCCC(c4ccccc4)S3(=O)=O)c(F)c2)CC1` (single isomer, unassigned) [Example 322]: the 50% inhibitory concentration (IC50) turned out to be 26 nM.

Consider `O=S1(=O)C(c2ccccc2)CCCCN1Cc1ccc(N2CCC(n3cnnc3)CC2)cc1F` (single isomer, unassigned) [Example 323, 2-[2-Fluoro-4-(4-[1,2,4]triazol-4-yl-piperidin-1-yl)-benzyl]-7-phenyl-[1,2]thiazepane 1,1-dioxide], for which the IC50 is 2 nM.

As to `CS(=O)(=O)N1CCC(Nc2ccc(CN3CCCCC(c4ccccc4)S3(=O)=O)cc2)CC1` (single isomer, unassigned) [Example 324, [4-(1,1,-Dioxo-7-phenyl-[1,2]thiazepan-2-ylmethyl)-phenyl]-(1-methanesulfonyl-piperidin-4-yl)-amine], the IC50 turned out to be 3 nM.

Take `O=S1(=O)C(c2ccccc2)CCCCN1Cc1ccc(N2CCC(n3cnnc3)CC2)cc1F` (single isomer, unassigned) [Example 325, 2-[2-Fluoro-4-(4-[1,2,4]triazol-4-yl-piperidin-1-yl)-benzyl]-7-phenyl-[1,2]thiazepane 1,1-dioxide]: the concentration for half-maximal inhibition (IC50) was found to be 10 nM.

On to `CS(=O)(=O)N1CCC(Nc2ccc(CN3CCCCC(c4ccccc4)S3(=O)=O)cc2)CC1` (single isomer, unassigned) [Example 326, [4-(1,1-Dioxo-7-phenyl-[1,2]thiazepan-2-ylmethyl)-phenyl]-(1-methanesulfonyl-piperidin-4-yl)-amine], for which the half-maximal inhibitory concentration (IC50) worked out at 4 nM.

With `CC(=O)N1CCN(c2ccc(CN3C(C)CCCC(c4ccccc4)S3(=O)=O)c(F)c2)CC1` (single isomer, unassigned) [Example 327, 1-{4-[3-Fluoro-4-(3-methyl-1,1-dioxo-7-phenyl-[1,2]thiazepan-2-ylmethyl)-phenyl]-piperazin-1-yl}-ethanone], the IC50 was 3 nM.

Consider `CC(=O)N1CCN(c2ccc(CN3C(C)CCCC(c4ccccc4)S3(=O)=O)c(F)c2)CC1` (single isomer, unassigned) [Example 328, 1-{4-[3-Fluoro-4-(3-methyl-1,1-dioxo-7-phenyl-[1,2]thiazepan-2-ylmethyl)-phenyl]-piperazin-1-yl}-ethanone], for which the IC50 came to 1090 nM.

Regarding `CC(=O)N1CCN(c2ccc(CN3C(C)CCCC(c4ccccc4)S3(=O)=O)c(F)c2)CC1` (single isomer, unassigned) [Example 329, 1-{4-[3-Fluoro-4-(3-methyl-1,1-dioxo-7-phenyl-[1,2]thiazepan-2-ylmethyl)-phenyl]-piperazin-1-yl}-ethanone], the IC50 came out at 24 nM.
